{
  "source": "patent US10155754B2",
  "about": "“Substituted 2-imino-1,3-thiazolidin-4-ones as N-arachidonoylethanolamine cellular uptake inhibitors” (UNIVERSITAT BERN, priority 2014, dated 2018)",
  "key": {"[1]": {"test_system": "AEA cellular uptake (U937 cells)", "assay": "[3H]-AEA cellular uptake inhibition in U937 cells", "type": "cell-based", "details": "Homo sapiens, U-937, U937 cells, final 100 nM AEA with 0.5 nM [3H]-AEA, 15 min at 37° C.; read-out: AEA uptake IC50", "in_short": "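U937 cells (0.5×10^6 per sample) pre-incubated with compound (100 pM–100 μM, triplicates) for 15 min at 37 °C, then given 100 nM AEA including 0.5 nM [3H]-AEA for 15 min. Filtration, washing and scintillation counting of cell-associated radioactivity; IC50 by four-parameter nonlinear regression.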"}, "[2]": {"target": "T1, FAAH (Homo sapiens, UniProt O00519)", "T1 construct": "endogenous in cells; host or cells: U937 cell homogenate", "T1 sequence (O00519 1-579)": "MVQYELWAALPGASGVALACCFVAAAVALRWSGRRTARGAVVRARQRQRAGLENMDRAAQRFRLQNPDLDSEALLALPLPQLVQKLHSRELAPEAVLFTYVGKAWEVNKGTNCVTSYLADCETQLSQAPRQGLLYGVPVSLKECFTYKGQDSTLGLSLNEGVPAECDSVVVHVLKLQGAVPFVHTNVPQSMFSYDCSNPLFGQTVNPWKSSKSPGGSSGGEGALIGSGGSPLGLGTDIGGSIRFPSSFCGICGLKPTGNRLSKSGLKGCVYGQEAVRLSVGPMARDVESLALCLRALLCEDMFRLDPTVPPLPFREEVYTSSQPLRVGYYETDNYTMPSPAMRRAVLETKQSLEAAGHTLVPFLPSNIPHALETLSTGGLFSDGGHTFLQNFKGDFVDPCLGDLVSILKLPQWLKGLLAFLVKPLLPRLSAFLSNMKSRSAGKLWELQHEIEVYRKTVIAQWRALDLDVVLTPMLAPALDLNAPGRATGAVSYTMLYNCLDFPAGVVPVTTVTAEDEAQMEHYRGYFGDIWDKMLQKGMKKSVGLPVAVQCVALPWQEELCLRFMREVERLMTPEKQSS", "assay": "FAAH activity: hydrolysis of [3H]-AEA in U937 cell homogenates", "type": "biochemical", "details": "[3H]-AEA hydrolysis, final 100 nM AEA, read-out: FAAH inhibition IC50", "experimental": "Hydrolysis of [^3H]-AEA by FAAH was determined as previously described in cell homogenates of U937 cells (0.18 mg protein) (Omeir et al., 1999, Biochem Biophys Res Commun, 264, 316-20; Mor et al., 2004, J Med Chem, 47, 4998-5008). Protein amounts of cell homogenates corresponded to 0.5×10^6 cells (U937), to assure best possible comparability of IC50 values as used for the AEA cellular uptake assays. URB597 was used as positive control. Protein quantification was performed using a BCA assay (Thermo Scientific). Enzyme activity was assessed by addition of vehicle or compounds in 10 μL DMSO to 490 μL homogenate in 10 mM Tris HCl, 1 mM EDTA, 0.1% (w/v) BSA fatty acid free, pH=8 and incubation for 15 min at 37° C. After, a mixture of AEA plus [ethanolamine-1-^3H]-AEA (0.5 nM) at final 100 nM was added to the homogenates and incubated for 15 min at 37° C. The reaction was stopped by addition of 1 mL ice-cold CHCl3:MeOH (1:1) followed by vigorous vortexing. Phase separation was achieved by centrifugation at 10'000×g at 4° C. for 10 min. Radioactivity of the separated aqueous phase (upper phase) containing [^3H-ethanolamine] or [^3H-glycerol] was measured by liquid scintillation counting on a Tri-Carb 2100 TR liquid scintillation analyzer after addition of 3.5 mL Ultima Gold scintillation cocktail (PerkinElmer Life Sciences). Results are expressed as hydrolysis of tritium substrate in percent of vehicle treated control. IC50 values were calculated by GraphPad®. Data are reported as means of n=3 independent experiments performed in triplicates."}},
  "data": [
    {"molecule": "O=C1/C(=C/c2ccc3ncsc3c2)S/C(=N\\c2ccccc2)N1c1ccccc1", "note": "[compound 32, (2Z,5Z)-5-((benzo[d]thiazol-6-yl)methylene)-3-phenyl-2-(phenylimino)thiazolidin-4-one]", "values": [
      {"measurement": "IC50", "setting": "[1]", "result": 291, "unit": "nM"},
      {"measurement": "IC50", "setting": "[2]", "result": "> 100000", "unit": "nM"}
    ]}
  ]
}
